In brackets after ≈: the same amount, converted by molar mass. Where two headings read alike, the source gives them in different places. *1 amine or outer side, *2 acyl side, *3 side chain or, on linkers, in order; H or OH if unused. Where a SMILES comes first, the peptide text is derived from it. Bridges are numbered along the chain shown (N, C = ends). [ ]: non-standard residue; d: D form. The star is where a group is joined. ξ: configuration not given here. NH(1,3-benzodioxol-5-yl) = c1cc2c(cc1N*)OCO2; Phe(3,5-F2) = N[C@@H](Cc1cc(F)cc(F)c1)C(=O)O; NH(1-Me-indolin-5-yl) = CN1CCc2cc(N*)ccc21; NMepT = CN[C@H](C(=O)O)[C@@H](C)OP(=O)(O)O; NH(4-OCF3-phenyl) = FC(F)(F)Oc1ccc(N*)cc1; Morpholine(3S-CO) = O=C(O)[C@@H]1COCCN1; Pro(4S-Me) = C[C@@H]1CN[C@H](C(=O)O)C1; Pro(4R-Me) = C[C@H]1CN[C@H](C(=O)O)C1; ξPro(4R-OH) = O=C(O)C1C[C@@H](O)CN1; ξPro(4R-Me) = C[C@H]1CNC(C(=O)O)C1; Hyp = O=C(O)[C@@H]1C[C@@H](O)CN1; NH(4-Et-phenyl) = CCc1ccc(N*)cc1; NH(4-Me-phenyl) = Cc1ccc(N*)cc1; aThr = C[C@H](O)[C@H](N)C(=O)O; Pip = O=C(O)[C@@H]1CCCCN1; NMeA = CN[C@@H](C)C(=O)O; CO = O=C([*:1])[*:2]
Experiments:
Assay type in all cases: cell-based
[1] = test system: Streptococcus pyogenes, ATCC 700294; assay: Minimal inhibitory concentration assay (microbroth dilution)
How it was run: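 Plates with two-fold compound dilution series in broth were incubated overnight, aerobically, at 37° C, following CLSI microdilution guidance.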

[2] = Cytotoxicity assay (CellTiter-Glo cell viability, 72 hours); details: African green monkey
How it was run: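 Viability measured by CellTiter-Glo luminescence after 72-hour compound exposure (serial dilutions, DMSO control) of Vero monolayers seeded at 5000 cells/well in 10% FBS DMEM. IC50 values are the range of two biologically independent experiments, each run in duplicate.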

[3] = test system: Staphylococcus aureus, ATCC 29213; assay: Minimal inhibitory concentration assay (microbroth dilution); details: ATCC29213, read-out: Minimal Inhibitory Concentrations S. aureus ATCC 29213
How it was run: (§1)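 MIC is the lowest concentration stopping visible growth after overnight aerobic culture at 37 °C, per CLSI microbroth dilution (about 10^5 cfu/mL; two-fold series, top final 200 μM). ClpP-inactivated S. aureus USA 300 tested alongside parent strain to probe ClpP-mediated killing.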

[4] = test system: Bacillus subtilis, ATCC 23857; assay: as above
How it was run: as §1

[5] = test system: Staphylococcus aureus, NRS70; assay: as above
How it was run: as §1

[6] = Streptococcus pyogenes, ATCC700294, read-out: Minimal Inhibitory Concentrations S. pyogenes ATCC 700294
[7] = Vero cells, 72 hours, growth inhibition, read-out: Cytotoxicity IC50
[8] = Bacillus subtilis, ATCC23857, read-out: Minimal Inhibitory Concentrations B. subtilis ATCC 23857
[9] = Staphylococcus aureus, NRS70, read-out: Minimal Inhibitory Concentrations S. aureus NRS70
[10] = Streptococcus pyogenes, ATCC700294; read-out: Minimal Inhibitory Concentrations S. pyogenes ATCC 700294
[11] = Bacillus subtilis, ATCC23857; read-out: Minimal Inhibitory Concentrations B. subtilis ATCC 23857
[12] = Staphylococcus aureus, NRS70; read-out: Minimal Inhibitory Concentrations S. aureus NRS70

| Structure (SMILES) | MIC [1, 6] [µM] | IC50 at 72 h [2, 7] [µM] | MIC [3] [µM] | MIC [4, 8] [µM] | MIC [5, 9] [µM] | MIC [1, 10] [µM] | IC50 at 72 h [2] [µM] | MIC [4, 11] [µM] | MIC [5, 12] [µM] |
| --- | --- | --- | --- | --- | --- | --- | --- | --- | --- |
| Cc1ccc(NC(=O)N[C@@H](Cc2cc(F)cc(F)c2)C(=O)N[C@@H]2C(=O)N3CCC[C@H]3C(=O)N(C)[C@@H]([C@@H](C)OP(=O)(O)O)C(=O)N[C@@H](C)C(=O)N3C[C@@H](C)C[C@H]3C(=O)O[C@H]2C)cc1 [Compound 188, (R)-1-((2S,6S,9S,11aS,17S,18S,20aS)-17-((S)-3-(3,5-difluorophenyl)-2-(3-(p-tolyl)ureido)propanamido)-2,6,10,18-tetramethyl-5,8,11,16,20-pentaoxohexadecahydro-1H,5H,16H-dipyrrolo[2,1-c:2′,1′-l][1]oxa[4,7,10,13]tetraazacyclohexadecin-9-yl)ethyl dihydrogen phosphate] ({NH(4-Me-phenyl)-CO}-[Phe(3,5-F2)][aThr]P[NMepT]A[Pro(4S-Me)]; ester 2-C) | 50 | > 100 | 25 | 13 | 25 |  |  |  |  |
| Cc1ccc(NC(=O)N[C@@H](Cc2cc(F)cc(F)c2)C(=O)N[C@H]2COC(=O)[C@@H]3C[C@@H](C)CN3C(=O)[C@H](C)NC(=O)C3CCCCN3C(=O)[C@@H]3C[C@@H](O)CN3C2=O)cc1 (stereo partly drawn) [Compound 323, (S)-3-(3,5-difluorophenyl)-N-((2R,6S,8aR,14aS,16R,20S,23aS)-16-hydroxy-2,6-dimethyl-5,8,14,19,23-pentaoxooctadecahydro-1H,5H,14H,19H-pyrido[2,1-i]dipyrrolo[2,1-c:2′,1′-l][1]oxa[4,7,10,13]tetraazacyclohexadecin-20-yl)-2-(3-(p-tolyl)ureido)propanamide] | 0.156 (≈ 0.126 µg/mL) | > 100 | 0.625 (≈ 0.506 µg/mL) | 0.313 (≈ 0.253 µg/mL) | 0.625 (≈ 0.506 µg/mL) |  |  |  |  |
| CCc1ccc(NC(=O)N[C@@H](Cc2cc(F)cc(F)c2)C(=O)N[C@@H]2C(=O)N3C[C@H](O)C[C@H]3C(=O)N3CCOC[C@H]3C(=O)N[C@@H](C)C(=O)N3C[C@H](C)C[C@H]3C(=O)O[C@H]2C)cc1 [Compound 320, (S)-3-(3,5-difluorophenyl)-2-(3-(4-ethylphenyl)ureido)-N-((6aS,8R,12S,13S,15aS,17R,21S,23aS)-8-hydroxy-13,17,21-trimethyl-6,11,15,20,23-pentaoxooctadecahydro-6H,11H,15H-[1,4]oxazino[3,4-i]dipyrrolo[2,1-c:2′,1′-l][1]oxa[4,7,10,13]-tetraazacyclohexadecin-12-yl)propanamide] ({NH(4-Et-phenyl)-CO}-[Phe(3,5-F2)][aThr][Hyp][Morpholine(3S-CO)]A[Pro(4R-Me)]; ester 2-C) |  |  | 0.156 (≈ 0.131 µg/mL) |  |  | 0.039 (≈ 0.0328 µg/mL) | > 100 | 0.625 (≈ 0.525 µg/mL) | 0.156 (≈ 0.131 µg/mL) |
| C[C@@H]1C[C@H]2C(=O)O[C@@H](C)[C@H](NC(=O)[C@H](Cc3cc(F)cc(F)c3)NC(=O)Nc3ccc4c(c3)CCN4C)C(=O)N3CCC[C@H]3C(=O)N3CCCC[C@H]3C(=O)N[C@@H](C)C(=O)N2C1 [Compound 310, (S)-3-(3,5-difluorophenyl)-2-(3-(1-methylindolin-5-yl)ureido)-N-((2R,6S,8aS,14aS,20S,21S,23aS)-2,6,21-trimethyl-5,8,14,19,23-pentaoxooctadecahydro-1H,5H,14H,19H-pyrido[2,1-i]dipyrrolo[2,1-c:2′,1′-l][1]oxa[4,7,10,13]tetraazacyclo-hexadecin-20-yl)propanamide] ({NH(1-Me-indolin-5-yl)-CO}-[Phe(3,5-F2)][aThr]P[Pip]A[Pro(4R-Me)]; ester 2-C) | 0.156 (≈ 0.132 µg/mL) | 0.4 ± 0.01 | 0.078 (≈ 0.0662 µg/mL) | 0.078 (≈ 0.0662 µg/mL) | 0.156 (≈ 0.132 µg/mL) |  |  |  |  |
| C[C@H]1C[C@H]2C(=O)O[C@@H](C)[C@H](NC(=O)[C@H](Cc3cc(F)cc(F)c3)NC(=O)Nc3ccc(OC(F)(F)F)cc3)C(=O)N3CCC[C@H]3C(=O)N3CCOC[C@H]3C(=O)N[C@@H](C)C(=O)N2C1 [Compound 201, (S)-3-(3,5-difluorophenyl)-2-(3-(4-(trifluoromethoxy)phenyl)ureido)-N-((6aS,12S,13S,15aS,17S,21S,23aS)-13,17,21-trimethyl-6,11,15,20,23-pentaoxooctadecahydro-6H,11H,15H-[1,4]oxazino[3,4-i]dipyrrolo[2,1-c:2′,1′-l][1]oxa[4,7,10,13]tetraazacyclohexadecin-12-yl)propanamide] ({NH(4-OCF3-phenyl)-CO}-[Phe(3,5-F2)][aThr]P[Morpholine(3S-CO)]A[Pro(4S-Me)]; ester 2-C) |  |  | 0.049 (≈ 0.0431 µg/mL) |  |  | 0.098 (≈ 0.0862 µg/mL) | 26 ± 2.6 | 0.024 (≈ 0.0211 µg/mL) | 0.024 (≈ 0.0211 µg/mL) |
| C[C@@H]1C[C@H]2C(=O)O[C@@H](C)[C@H](NC(=O)[C@H](Cc3cc(F)cc(F)c3)NC(=O)Nc3ccc4c(c3)OCO4)C(=O)N3C[C@H](O)C[C@H]3C(=O)N3CCOC[C@H]3C(=O)N[C@@H](C)C(=O)N2C1 [Compound 319, (S)-2-(3-(benzo[d][1,3]dioxol-5-yl)ureido)-3-(3,5-difluorophenyl)-N-((6aS,8R,12S,13S,15aS,17R,21S,23aS)-8-hydroxy-13,17,21-trimethyl-6,11,15,20,23-pentaoxooctadecahydro-6H,11H,15H-[1,4]oxazino[3,4-i]dipyrrolo[2,1-c:2′,1′-l][1]oxa[4,7,10,13]tetraazacyclo-hexadecin-12-yl)propanamide] ({NH(1,3-benzodioxol-5-yl)-CO}-[Phe(3,5-F2)][aThr][Hyp][Morpholine(3S-CO)]A[Pro(4R-Me)]; ester 2-C) |  |  | 2.5 (≈ 2.14 µg/mL) |  |  | 0.313 (≈ 0.268 µg/mL) | > 100 | 10 (≈ 8.56 µg/mL) | 5 (≈ 4.28 µg/mL) |
| Cc1ccc(NC(=O)N[C@@H](Cc2cc(F)cc(F)c2)C(=O)N[C@@H]2C(=O)N3C[C@H](O)CC3C(=O)N(C)[C@@H](C)C(=O)N[C@@H](C)C(=O)N3C[C@H](C)CC3C(=O)O[C@H]2C)cc1 (stereo partly drawn) [Compound 31, (S)-3-(3,5-difluorophenyl)-N-((2S,6S,9S,11aS,13R,17S,18S,20aS)-13-hydroxy-2,6,9,10,18-pentamethyl-5,8,11,16,20-pentaoxohexadecahydro-1H,5H,16H-dipyrrolo[2,1-c:2′,1′-l][1]oxa[4,7,10,13]tetraazacyclohexadecin-17-yl)-2-(3-(p-tolyl)ureido)propanamide] ({NH(4-Me-phenyl)-CO}-[Phe(3,5-F2)][aThr][ξPro(4R-OH)][NMeA]A[ξPro(4R-Me)]; ester 2-C) | 0.78 (≈ 0.622 µg/mL) | > 100 | 0.39 (≈ 0.311 µg/mL) | 0.39 (≈ 0.311 µg/mL) | 0.39 (≈ 0.311 µg/mL) |  |  |  |  |
| C[C@@H]1C[C@H]2C(=O)O[C@@H](C)[C@H](NC(=O)[C@H](Cc3cc(F)cc(F)c3)NC(=O)Nc3ccc4c(c3)CCN4C)C(=O)N3CCC[C@H]3C(=O)N3CCOC[C@H]3C(=O)N[C@@H](C)C(=O)N2C1 [Compound 312, (S)-3-(3,5-difluorophenyl)-2-(3-(1-methylindolin-5-yl)ureido)-N-((6aS,12S,13S,15aS,17R,21S,23aS)-13,17,21-trimethyl-6,11,15,20,23-pentaoxooctadecahydro-6H,11H,15H-[1,4]oxazino[3,4-i]dipyrrolo[2,1-c:2′,1′-l][1]oxa[4,7,10,13]tetraazacyclo-hexadecin-12-yl)propanamide] ({NH(1-Me-indolin-5-yl)-CO}-[Phe(3,5-F2)][aThr]P[Morpholine(3S-CO)]A[Pro(4R-Me)]; ester 2-C) | 0.156 (≈ 0.133 µg/mL) | 2.87 | 0.156 (≈ 0.133 µg/mL) | 0.313 (≈ 0.266 µg/mL) | 0.078 (≈ 0.0664 µg/mL) |  |  |  |  |

Reference: patent publication US10457707B2, “Substituted urea depsipeptide analogs as activators of the CLPP endopeptidase” (priority 2015, dated 2019)
